Data taken from patent US20090170804A1, “PIRFENIDONE/TOLL-LIKE RECEPTOR (TLR) AGONIST COMPOSITIONS AND METHODS FOR USING THEM TO STIMULATE PRODUCTION OF GRANULOCYTE COLONIZING STIMULATING FACTOR (G-CSF)” (priority 2005, published 2009).
Like-named read-outs stand apart in the source and are kept apart here.

Columns and labels:
Human PBMCs [1] = test: LPS-mediated cytokine induction in human PBMCs (BioRad Multiplex Cytokine Platform); format: cell-based; set-up: TNF-α release in PBMCs (FIG. 9) / G-CSF release in PBMCs (FIG. 9): dose or concentration left out as unconfirmed; conditions: for IC50: PBMC, 1 h pirfenidone pretreatment, LPS, optimal expression at 8 hours
Description: Human PBMCs (10^5 cells per well) were pretreated with pirfenidone (5 mM to 5 μM) for one hour in a 96-well plate and then stimulated with LPS ([…] to 0.01 ng/ml) for 1, 2, 8, or 24 hours at 37° C. Subsequently, cells were spun and supernatants collected and assayed for protein expression using the BioRad Multiplex Cytokine Platform, which enables 17 different cytokines to be analyzed simultaneously: G-CSF, GM-CSF, IFN-γ, IL-1β, IL-2, IL-4, IL-5, IL-6, IL-7, IL-8, IL-10, IL-12 (p70), IL-13, IL-17, MCP-1, MIP-1β, and TNF-α.

Human PBMCs [2] = test: p38 inhibitors: TLR-agonist-mediated TNF-α and G-CSF release from human PBMCs; format: cell-based; conditions: 1 h pretreatment, then LPS, Fibrin, LTA, PG or CpG for 24 hours
Description: The effect of various p38 inhibitors on LPS-mediated TNF-α and G-CSF release from human PBMCs was examined. Briefly, human PBMCs (10^5 cells per well) were pretreated with pirfenidone, a hydroxyl-pirfenidone derivative, SB202190 (commercially available p38 inhibitor), or SB203580 (commercially available p38 inhibitor) for one hour in a 96-well plate and then stimulated with lipopolysaccharide (LPS, binds TLR4), Fibrin (binds TLR4), lipoteichoic acid (LTA, binds TLR2), peptidoglycan (PG, binds TLR2), or CpG (bacterial DNA, binds TLR9) for 24 hours at 37° C. Subsequently, cells were spun and supernatants collected and assayed for G-CSF expression.
Each TLR agonist alone is set to 1 (positive control) and the subsequent release of G-CSF in the presence of p38 inhibitors is determined relative to the positive control.

[3] = in the presence of pirfenidone (lmM)

Molecule | induction of expression of IL-2, IL-4, IL-5, IL-7, IL-12, IL-13, or IL-17 (Human PBMCs [1]; human PBMCs stimulated with LPS) | TLR-induced G-CSF release (FIG. 12, fold induction relative to TLR agonist alone) (Human PBMCs [2]) | IC50 (Human PBMCs [1]; human PBMCs, read-out: pirfenidone IC50 for IL-1β (LPS-mediated cytokine induction)) | IC50 (Human PBMCs [1]; human PBMCs, read-out: pirfenidone IC50 for TNF-α (LPS-mediated cytokine induction)) | LPS-mediated release of G-CSF (Human PBMCs [1]; human PBMCs) | LPS-mediated release of GM-CSF (Human PBMCs [1]; human PBMCs) | LPS-mediated release of IFN-γ (Human PBMCs [1]; human PBMCs) | LPS-mediated release of IL-1β (Human PBMCs [1]; human PBMCs) | LPS-mediated release of IL-10 (Human PBMCs [1]; human PBMCs) | LPS-mediated release of MCP-1 (Human PBMCs [1]; human PBMCs) | LPS-mediated release of TNF-α (Human PBMCs [1]; human PBMCs) | constitutive (but not LPS-mediated) expression of IL-6 (Human PBMCs [1]; human PBMCs) | constitutive (but not LPS-mediated) expression of IL-8 (Human PBMCs [1]; human PBMCs) | constitutive (but not LPS-mediated) expression of MIP-1β (Human PBMCs [1]; human PBMCs) | LPS-induced expression of G-CSF augmented by (Human PBMCs [1]; [3]) | LPS-induced expression of IL-10 augmented by (Human PBMCs [1]; [3]) | TNF-α expression in PBMCs (FIG. 1) (Human PBMCs [1]; pirfenidone 185 μg/mL and LPS 1 μg/mL) | G-CSF release in PBMCs (FIG. 9) (Human PBMCs [1]; pirfenidone and LPS) | TNF-α release in PBMCs (FIG. 9) (Human PBMCs [1]; pirfenidone and LPS)
lipopolysaccharide [LPS] | did not induce | – | – | – | – | – | – | – | – | – | – | – | – | – | – | – | – | – | –
Cc1ccc(=O)n(-c2ccccc2)c1 [pirfenidone, 5-methyl-1-phenyl-2-(1H)-pyridone] | – | augmented | ~2500 µM | ~1000 µM | augmented | inhibited | inhibited | inhibited | augmented | augmented | inhibited | inhibited | inhibited | inhibited | 100% | 35% | reduced | increased | decreased
